How the values were obtained:
[1] = in vivo; cited from earlier work
[2] = format: in vitro ADME, hairless guinea pig
Method: Aliquots (100 μg) of peptide were incubated at 37° C. with skin extract (1 mL) over the indicated periods of time. The remaining peptide was separated and quantified by HPLC. The data represent averages of duplicate experiments;
The incubation of peptides (PTH(1-34), left panel and PTH(1-34) amide, right panel) with skin extracts, over the indicated times, was conducted as described in Example 2. Fractions containing the peaks were collected, lyophilized and the masses were determined by MALDI-TOF.
Hairless guinea pig skin extracts (1 mL aliquots) were prepared from samples of plasma and skin extracts, respectively, and stored at about −20° C. Stock solutions of hPTH(1-34), hPTH(1-34)NH2, hPTH (1-34)NH-propyl, and hPTH (1-34)NH-phenylpropyl were prepared in HPLC-grade water to achieve a concentration of 10 mg of peptide/mL. Aliquots of skin extracts (1 ml) were incubated at 37° C. for 10 minutes prior to the addition of peptide (100 μg; 10 μL stock solution) or water (10 μL) (control). […]
The lyophilized samples were resuspended in 200 μL of 0.1 N acetic acid and centrifuged at 13,000 g for 15 minutes at room temperature. […] Fractions containing the metabolites of PTH derivatives were collected, concentrated by lyophilization and their masses determined by MALDI-TOF MS (using Voyager-DE Perseptive Biosystems according to the manufacture's procedure).

Substance	potency in anabolic actions on the bone relative to PTH(1-34) [1]	stimulation of resorption markers [1]	site of degradation by skin proteases [2]
PTH (1-31)	as potent as PTH(1-34)	without stimulating resorption markers	–
hPTH(1-34) [PTH (1-34)]	–	–	takes place at the carboxyterminal end
